Results on 19 compounds are retold here after patent US9796719B2, “Compounds and pharmaceutical compositions thereof for the treatment of inflammatory disorders” (GALAPAGOS NV, priority 2013, dated 2017).

For experiment [1], the target named is T1, hENPP2 (UniProtKB/SwissProt Sequence ref Q13822) (Homo sapiens (Human), UniProt Q13822). Kind of experiment: LPC hENPP2 assay (choline release, LPC as substrate). The format is biochemical. Summed up:
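Detection is coupled: choline oxidase produces peroxide, which HRP uses to form quinoneimine dye from TOOS and 4-aminoantipyrine, read at 555 nm. The reaction is stopped with 20 mM EGTA in the developer mix, then incubated 30 min at room temperature; inhibition lowers signal.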

Experiment [2] has as its target T1, hENPP2. Kind of experiment: FS3 hENPP2 assay (fluorogenic substrate FS-3). The format is biochemical. The following applies: hENPP2, FS-3 as substrate. The procedure: Compound IC50 values are determined in a fluorescent hENPP2 (UniProtKB/SwissProt Sequence ref Q13822) biochemical assay using the fluorogenic autotaxin substrate FS-3 as substrate. FS-3 is a doubly labeled analog of LPC wherein the fluorophore is quenched through intramolecular energy transfer. Without hENPP2, the emission of the probe is quenched. If the substrate is hydrolyzed by hENPP2, the emission of the probe is not quenched anymore resulting in a fluorescence increase. Inhibition of hENPP2 by compounds will result in a decrease of the signal.
10 μL of a dilution series of compound, starting from 20 μM highest concentration, ⅕ dilution, is added to the wells. hENPP2 is used at a final concentration of 0.4 μg/mL or 0.64 μg/mL (it will be appreciated by the skilled person that the potency read out is independent of the enzyme concentration). The enzyme is diluted in 50 mM Tris-HCl pH 8.0, 250 mM NaCl, 5 mM KCl, 1 mM MgCl2, 1 mM CaCl2, 0.1% fatty acid free BSA in a total volume of 20 μL. Enzyme mixture is added to compounds and the resulting mixture is incubated for 30 min at room temperature under shaking. The reaction is started by the addition of 20 μL of 0.75 μM FS-3 diluted in the same buffer as described above and the mixture is incubated at 30° C. for 30 min. Fluorescence is read on the Envision (Excitation 485 nm, emission 520 nm).

SMILES strings stand for the structures.

Regarding `CCc1nc2ccc(N3CCN(S(C)(=O)=O)[C@H](CO)C3)nn2c1N(C)c1nc(-c2ccc(F)cc2)cs1` [Cpd 67, (S)-(4-(2-ethyl-3-((4-(4-fluorophenyl)thiazol-2-yl)(methyl)amino)imidazo[1,2-b]pyridazin-6-yl)-1-(methylsulfonyl)piperazin-2-yl)methanol], the IC50 is 100 to 500 nM against hENPP2 [1] and 0.01 to 25 nM against hENPP2 [2].
The like results for `CCc1nc2ccc(C3=CCN(S(C)(=O)=O)CC3)nn2c1N(C)c1nc(-c2ccc(F)cc2)cs1` [Cpd 194, N-(2-ethyl-6-(1-(methylsulfonyl)-1,2,3,6-tetrahydropyridin-4-yl)imidazo[1,2-b]pyridazin-3-yl)-4-(4-fluorophenyl)-N-methylthiazol-2-amine] were, in that order, above 1000 nM and 0.01 to 25 nM.
The like results for `CCc1nc2ccc(N3CCC(N4CCOCC4)C3)nn2c1N(C)c1nc(-c2ccc(F)cc2)cs1` (stereo not shown) [Cpd 147, N-(2-ethyl-6-(3-morpholino-pyrrolidin-1-yl)imidazo[1,2-b]pyridazin-3-yl)-4-(4-fluorophenyl)-N-methylthiazol-2-amine] were, in that order, 100 to 500 nM and 0.01 to 25 nM.
As to `CCc1nc2ccc(N3CCN(CC(=O)NC(C)C)CC3)nn2c1N(C)c1nc(-c2ccc(F)cc2)cs1` [Cpd 54, 2-(4-(2-ethyl-3-((4-(4-fluorophenyl)thiazol-2-yl)(methyl)amino)imidazo[1,2-b]pyridazin-6-yl)piperazin-1-yl)-N-isopropylacetamide], the IC50 was above 1000 nM at hENPP2 [1] and 0.01 to 25 nM against hENPP2 [2].
The like results for `CCc1nc2ccc(N3CCN(CC(=O)N4CC(O)C4)CC3)nn2c1N(C)c1nc(-c2ccc(F)cc2)c(C#N)s1` [Cpd 27, 2-((2-ethyl-6-(4-(2-(3-hydroxyazetidin-1-yl)-2-oxoethyl)piperazin-1-yl)imidazo[1,2-b]pyridazin-3-yl)(methyl)amino)-4-(4-fluorophenyl) thiazole-5-carbonitrile] were, in that order, 0.01 to 100 nM and 0.01 to 25 nM.
The like results for `CCc1nc2ccc(N3CCN(C(=O)C4CCCO4)CC3)nn2c1N(C)c1nc(-c2ccc(F)cc2)cs1` (stereo not drawn) [Cpd 47, (4-(2-ethyl-3-((4-(4-fluorophenyl)thiazol-2-yl)(methyl)amino)imidazo[1,2-b]pyridazin-6-yl)piperazin-l-yl)(tetrahydrofuran-2-yl)methanone] were, in that order, above 1000 nM and 0.01 to 25 nM.
On to `CCc1nc2ccc(N3CCN(CCCO)CC3)nn2c1N(C)c1nc(-c2ccc(F)cc2)cs1` [Cpd 49, 3-(4-(2-ethyl-3-((4-(4-fluorophenyl)thiazol-2-yl)(methyl)amino)imidazo[1,2-b]pyridazin-6-yl)piperazin-1-yl)propan-1-ol], for which the concentration for half-maximal inhibition (IC50) at hENPP2 [1] lay in the range of 500 to 1000 nM; on hENPP2 [2], 0.01 to 25 nM.
The like results for `CCc1nc2ccc(N3CCN(CCOC)CC3)nn2c1N(C)c1nc(-c2ccc(F)cc2)cs1` [Cpd 53, N-(2-ethyl-6-(4-(2-methoxyethyl)piperazin-1-yl)imidazo[1,2-b]pyridazin-3-yl)-4-(4-fluorophenyl)-N-methylthiazol-2-amine] were, in that order, above 1000 nM and 0.01 to 25 nM.
The like results for `CCc1nc2ccc(N3CCC(N)CC3)nn2c1N(C)c1nc(-c2ccc(F)cc2)cs1` [Cpd 82, N-(6-(4-aminopiperidin-1-yl)-2-ethylimidazo[1,2-b]pyridazin-3-yl)-4-(4-fluorophenyl)-N-methylthiazol-2-amine] were, in that order, above 1000 nM and 0.01 to 25 nM.
For `CCc1nc2ccc(C3=CCN(C(=O)OC(C)(C)C)CC3)nn2c1N(C)c1nc(-c2ccc(F)cc2)cs1` [Compound 193, tert-butyl 4-(2-ethyl-3-((4-(4-fluorophenyl)thiazol-2-yl)(methyl)amino)imidazo[1,2-b]pyridazin-6-yl)-5,6-dihydropyridine-1(2H)-carboxylate], the concentration for half-maximal inhibition (IC50) against hENPP2 [2] lay within 0.01 to 25 nM.
In the case of `CCc1nc2ccc(N3CCC4(CN(C)C(=O)O4)C3)nn2c1N(C)c1nc(-c2ccc(F)cc2)cs1` (stereo not shown) [Cpd 119, 7-(2-ethyl-3-((4-(4-fluorophenyl)thiazol-2-yl)(methyl)amino)imidazo[1,2-b]pyridazin-6-yl)-3-methyl-1-oxa-3,7-diazaspiro[4.4] nonan-2-one], at hENPP2 [1], the IC50 fell in the range of 100 to 500 nM.
On the same count and under the same terms, the figure for `CCc1nc2ccc(N3CCN(CC(=O)NCCO)CC3)nn2c1N(C)c1nc(-c2ccc(F)cc2)cs1` [Cpd 35, 2-(4-(2-ethyl-3-((4-(4-fluorophenyl)thiazol-2-yl)(methyl)amino)imidazo[1,2-b]pyridazin-6-yl)piperazin-1-yl)-N-(2-hydroxyethyl) acetamide] is above 1000 nM; for `CCc1nc2ccc(N3CC(C(=O)N4CCC(O)C4)C3)nn2c1N(C)c1nc(-c2ccc(F)cc2)c(C#N)s1` (stereo not shown) [Cpd 192, 2-((2-ethyl-6-(3-(3-hydroxy-pyrrolidine-1-carbonyl)azetidin-1-yl)imidazo[1,2-b]pyridazin-3-yl)(methyl)amino)-4-(4-fluorophenyl) thiazole-5-carbonitrile] it is 100 to 500 nM.
In turn, `CCc1nc2ccc(N3CCN(C(=O)OC(C)(C)C)[C@H](CO)C3)nn2c1N(C)c1nc(-c2ccc(F)cc2)cs1` [Cpd 59, (S)-tert-butyl 4-(2-ethyl-3-((4-(4-fluorophenyl)thiazol-2-yl)(methyl)amino)imidazo[1,2-b]pyridazin-6-yl)-2-(hydroxymethyl) piperazine-1-carboxylate] had an IC50 against hENPP2 [1] above 1000 nM.
`CCc1nc2ccc(N3CCC(NC(=O)C4CCNCC4)CC3)nn2c1N(C)c1nc(-c2ccc(F)cc2)cs1` [Cpd 88, N-(1-(2-ethyl-3-((4-(4-fluorophenyl)thiazol-2-yl)(methyl)amino)imidazo[1,2-b]pyridazin-6-yl)piperidin-4-yl)piperidine-4-carboxamide] had a 50% inhibitory concentration (IC50) against hENPP2 [1] of 500 to 1000 nM.
Same read-out and setting: the figure for `CCc1nc2ccc(N3CCCC4(CN(C)C(=O)O4)C3)nn2c1N(C)c1nc(-c2ccc(F)cc2)c(C#N)s1` (stereo not shown) [Cpd 163, 2-((2-ethyl-6-(3-methyl-2-oxo-1-oxa-3,7-diazaspiro[4.5]decan-7-yl)imidazo [1,2-b]pyridazin-3-yl)(methyl)amino)-4-(4-fluorophenyl) thiazole-5-carbonitrile] is above 1000 nM.
`CCc1nc2ccc(N3CC(NCC(=O)N(C)C)C3)nn2c1N(C)c1nc(-c2ccc(F)cc2)cs1` [Cpd 156, 2-(1-(2-ethyl-3-((4-(4-fluorophenyl)thiazol-2-yl)(methyl)amino)imidazo[1,2-b]pyridazin-6-yl)azetidin-3-ylamino)-N,N-dimethylacetamide]: the half-maximal inhibitory concentration (IC50) on hENPP2 [1] was in the range of 500 to 1000 nM.
Still for that read-out and setting: the figure for `CCc1nc2ccc(N3C[C@H]4C[C@H]3CN4C(=O)OC(C)(C)C)nn2c1N(C)c1nc(-c2ccc(F)cc2)cs1` [Cpd 74, tert-butyl-(1R,4S)-5-(2-ethyl-3-((4-(4-fluorophenyl)thiazol-2-yl)(methyl)amino)imidazo[1,2-b]pyridazin-6-yl)-2,5-diazabicyclo[2.2.1] heptane-2-carboxylate] is above 1000 nM; for `CCc1nc2ccc(N3CCC(CNC(=O)C4CCOCC4)CC3)nn2c1N(C)c1nc(-c2ccc(F)cc2)cs1` [Cpd 107, N-((1-(2-ethyl-3-((4-(4-fluorophenyl)thiazol-2-yl)(methyl)amino)imidazo[1,2-b]pyridazin-6-yl)piperidin-4-yl)methyl) tetrahydro-2H-pyran-4-carboxamide] it is 500 to 1000 nM.
